target: T1, bovine PDE6 (Bos taurus, UniProt P11541+P23439); assay: PDE7 selectivity test (Ki value), Experimental Example 2: bovine PDE6; format: biochemical; conditions: Ki from IC50 by Cheng-Prusoff, read-out: PDE inhibition constant Ki, PDE6
T1 construct: PDE6 was purified and isolated from bovine retina (bovine PDE6); from tissue; host or cells: bovine retina
T1 sequence (P11541 2-856 limits assumed): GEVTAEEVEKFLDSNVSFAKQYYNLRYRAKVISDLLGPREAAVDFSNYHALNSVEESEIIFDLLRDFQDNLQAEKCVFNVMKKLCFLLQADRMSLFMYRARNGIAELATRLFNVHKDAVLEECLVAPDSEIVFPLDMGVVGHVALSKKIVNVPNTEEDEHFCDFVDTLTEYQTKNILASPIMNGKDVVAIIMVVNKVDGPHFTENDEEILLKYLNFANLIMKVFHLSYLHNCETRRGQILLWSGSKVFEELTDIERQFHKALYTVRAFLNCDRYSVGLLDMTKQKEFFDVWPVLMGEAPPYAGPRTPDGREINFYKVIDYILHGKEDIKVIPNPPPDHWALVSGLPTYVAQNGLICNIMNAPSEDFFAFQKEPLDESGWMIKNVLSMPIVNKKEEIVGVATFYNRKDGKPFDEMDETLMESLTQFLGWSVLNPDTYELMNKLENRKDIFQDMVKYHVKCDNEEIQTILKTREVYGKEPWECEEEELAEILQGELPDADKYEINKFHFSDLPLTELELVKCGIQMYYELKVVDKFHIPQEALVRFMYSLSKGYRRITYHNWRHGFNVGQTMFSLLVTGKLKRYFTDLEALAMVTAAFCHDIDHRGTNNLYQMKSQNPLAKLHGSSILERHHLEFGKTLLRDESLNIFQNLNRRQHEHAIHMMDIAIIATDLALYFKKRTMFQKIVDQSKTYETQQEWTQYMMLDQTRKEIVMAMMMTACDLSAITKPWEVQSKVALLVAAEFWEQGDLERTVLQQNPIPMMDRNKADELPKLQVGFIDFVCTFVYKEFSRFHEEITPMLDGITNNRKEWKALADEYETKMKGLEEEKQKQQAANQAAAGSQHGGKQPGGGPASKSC
T1 sequence (P23439 2-850 limits assumed): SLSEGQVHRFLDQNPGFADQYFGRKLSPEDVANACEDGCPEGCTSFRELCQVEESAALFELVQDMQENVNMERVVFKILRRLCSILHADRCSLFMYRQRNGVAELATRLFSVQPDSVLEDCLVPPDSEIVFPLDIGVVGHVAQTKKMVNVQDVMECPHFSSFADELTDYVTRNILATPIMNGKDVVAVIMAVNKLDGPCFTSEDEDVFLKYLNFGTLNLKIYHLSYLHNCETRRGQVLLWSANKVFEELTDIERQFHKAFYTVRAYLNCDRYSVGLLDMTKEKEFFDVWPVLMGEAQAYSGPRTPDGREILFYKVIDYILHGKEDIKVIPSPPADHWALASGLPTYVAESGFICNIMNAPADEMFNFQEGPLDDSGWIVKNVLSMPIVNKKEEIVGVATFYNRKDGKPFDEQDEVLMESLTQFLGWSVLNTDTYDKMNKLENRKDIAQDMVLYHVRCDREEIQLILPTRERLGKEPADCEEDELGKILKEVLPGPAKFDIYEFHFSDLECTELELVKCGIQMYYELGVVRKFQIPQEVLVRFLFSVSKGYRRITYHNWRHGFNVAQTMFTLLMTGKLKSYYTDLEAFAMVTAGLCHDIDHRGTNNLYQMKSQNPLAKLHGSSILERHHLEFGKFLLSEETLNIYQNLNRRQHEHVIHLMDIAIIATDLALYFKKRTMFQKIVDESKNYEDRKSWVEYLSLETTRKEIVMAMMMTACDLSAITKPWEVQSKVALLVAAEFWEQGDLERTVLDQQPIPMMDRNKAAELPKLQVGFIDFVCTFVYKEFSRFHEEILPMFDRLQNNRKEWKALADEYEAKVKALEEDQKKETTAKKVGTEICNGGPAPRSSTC
Experimental: hPDE1A, hPDE2A, hPDE3A, hPDE4D, hPDE5A, and hPDE8B were purchased from SB Drug Discovery. hPDE7B was isolated by the same method as [Method for preparing samples 1], and hPDE9A, hPDE10A, and hPDE11A were isolated by the same method as hPDE7B, i.e., isolated from COS-7 cells transfected with plasmids encoding each PDE. PDE6 was purified and isolated from bovine retina (bovine PDE6).
Prior to the calculation of Ki value, Km value of each PDE against cAMP or cGMP was calculated. Each PDE diluted with an assay buffer so that it would have an appropriate enzyme activity, and six or more concentrations of cAMP or cGMP were reacted at room temperature for 60 minutes. Regarding PDE using cAMP as a substrate, PDELight (trademark) HTS cAMP phosphodiesterase Kit (Lonza) was used to measure a degradation product, 5′-AMP. Also, regarding PDE using cGMP as a substrate, […] of perchloric acid was added to the mixture to stop the reaction, and the resulting mixture was subjected to LC-MS/MS to measure the residual cGMP concentration. The amount of degraded substrate in each substrate concentration was calculated, the concentration of the added substrate was plotted on the horizontal axis, the amount of degraded substrate was plotted on the vertical axis, and Km value was calculated by non-linear regression on the basis of Michaelis-Menten equation. Km value (substrate) of each PDE was hPDE1A: 4.3 (cGMP), hPDE2A: 36 (cAMP), hPDE3A: 0.11 (cAMP), hPDE4D: 0.90 (cAMP), hPDE5A: 3.9 (cGMP), bovine PDE6:9.8 (cGMP), hPDE7B: 0.015 (cAMP), hPDE8B: 0.63 (cAMP), hPDE9A: 0.0037 (cGMP), hPDE10A: 0.051 (cAMP), and hPDE11A: 1.4 (cAMP) μmol/L, respectively.
Next, PDE inhibition assay of a compound was carried out using each PDE. The PDE inhibition assay was basically carried out by the same enzyme reaction method as [Assay procedure 1], and the degraded amount of cAMP or cGMP was measured by the same method as [Assay procedure 2]. In the assay, a concentration approximated to Km value of each PDE against cAMP or cGMP was used as a substrate concentration. Meanwhile, regarding hPDE5A, hPDE8B, and hPDE9A, IMAP (trademark) FP Phosphodiesterase Evaluation Assay Kit (Molecular Devices) was used to measure the degradation of FAM-cAMP or FAM-cGMP by fluorescence depolarization technique.
Each compound was evaluated at six or more concentrations with common ratio 10. Each inhibition rate was calculated according to <Method for data calculation 1>, and then each IC50 value was calculated by sigmoid regression. The resulting IC50 value was used in the following Cheng-Prusoff equation to calculate each Ki value. Ki=IC50/(1+[S]/Km), wherein [S] represents a substrate concentration used

Row | SMILES | Ki [µM]
1 | Cc1nc(N)c2nnn(C3CCCCC3)c2n1 [Example 4] | > 4.9
2 | C[C@@H]1CCC[C@H](c2nnc3c(N)nccn23)C1 [Example 204, 3-[(1S,3R)-3-methylcyclohexyl][1,2,4]triazolo[4,3-a]pyrazin-8-amine] | > 49
3 | Nc1nccn2c(C3CCCCC3)nnc12 [Example 141, 3-cyclohexyl[1,2,4]triazolo[4,3-a]pyrazin-8-amine] | > 4.9
4 | Nc1ncnc2c1nnn2C1CCCCC1 [Example 3, 3-cyclohexyl-3H-[1,2,3]triazolo[4,5-d]pyrimidin-7-amine] | > 49
5 | CC1CCCCC1n1nnc2c(N)ncnc21 (single isomer, unassigned) [Example 191, 3-(cis-2-methylcyclohexyl)-3H-[1,2,3]triazolo[4,5-d]pyrimidin-7-amine] | > 49

Reference: US20190185479A1, “BICYCLIC NITROGENATED HETEROCYCLIC COMPOUND” (MITSUBISHI TANABE PHARMA CORPORATION, priority 2016, published 2019)
